From patent US8471027B2, “Adamantyl compounds” (Hoffmann-La Roche Inc., priority 2011, dated 2013)
pEC50, pIC50: −log10 of the molar value.

Key:
[1] = tested on: phospho(Ser63)-c-jun in HK-2 cells; assay: Cell-based assay for JNK inhibitors: in-cell ELISA of TNFα-stimulated phospho(Ser63)-c-jun in HK-2 cells; conditions: Homo sapiens, 10 ng/mL TNFα, 60 min preincubation with compound
Experimental: Cell-Based Assay for JNK Inhibitors
The cell-based assay employed the in-cell ELISA method to determine the ability of compounds to prevent the generation of phospho(Ser63)-c-jun in HK-2 cells (human proximal tubule cells) in response to stimulation with tumor necrosis factor α (TNFα). In brief, for quantification of phospho(Ser63)-c-jun, the cells (in 96-well format) were fixed and permeablized then incubated sequentially with a rabbit anti-phospho-c-jun First Antibody specific for the presence of the phospho-Ser63 epitope and a donkey anti-rabbit IgG Second Antibody linked to horseradish peroxidase (HRP) for colorimetric quantitation of binding. For determination of non-specific binding of the First Antibody, Blank wells were preincubated with a mouse anti-phospho(Ser63)-c-jun Blocking Antibody that prevented specific binding of the First Antibody to the phospho-Ser63 epitope, but which was not recognized by the donkey anti-rabbit IgG Second Antibody. […] Blank wells received no TNFα stimulation or compound. Additional Control wells received TNFα stimulation, but no compound. The signal obtained in this case was considered the value for 0% inhibition (Control value).
Stock cultures of HK-2 cells (ATCC, Manassas, Va.) were grown under a 5% CO2/[…] atmosphere at 37 degrees C. in Keratinocyte-SFM medium (KSFM, Invitrogen, Grand Island, N.Y.) containing 5 μg/L epidermal growth factor and 5 mg/L bovine pituitary extract (both supplied with the medium), additionally supplemented with 10% (v/v) fetal calf serum (FCS; Invitrogen, Grand Island, N.Y.) and 1% (v/v) antibiotic-antimycotic (ABAM: Sigma, St. Louis, Mo.). For assays, cells were seeded in collagen coated 96-well polystyrene plates (BD Biosciences, Franklin Lakes, N.J.) at a density of 40,000 cells/well and cultured for 24 h in the same medium (100 μL/well) followed by a further 16-24 h in 100 μL of similar medium, but without FCS. […] Cells were incubated for a further 30 minutes and then the medium was aspirated and the wells washed with 100 μL/well PBS followed by the addition of 100 μL 3.7% (v/v) Formaldehyde (Fisher Scientific, Fair Lawn, N.J.) in PBS. Plates were then allowed to stand at room temperature for 20 minutes before being washed with 200 μL/well of PBS. (Further steps were performed immediately or the plates were stored at 4 degrees C. and the assay completed the next day.) To each well was added 100 μL 1% (v/v) TritonX-100 (Sigma, St. Louis, Mo.) in PBS followed by 20 minutes standing at room temperature, washing with 200 μL/well PBS, the addition of 100 μL/well of Quenching buffer (1% (v/v) hydrogen peroxide (Sigma, St. Louis, Mo.) and 0.1% (w/v) sodium azide (Fisher Scientific, Fair Lawn, N.J.)) in PBS and a further 20 minutes at room temperature. Plates were then washed twice with 200 μL/well of 0.1% (v/v) Tween-20 (Teknova, Hollister, Calif.) in PBS before addition of 200 μL/well of 2% BSA/0.10% Tween-20 in PBS and a further 1 hour at room temperature. At this time, buffer was removed from Blank wells and replaced with 90 μL/well of mouse anti-phospho-c-jun-Ser63 (BD Bioscience, 558036) diluted 1:4000 in PBS containing 1% BSA/0.1% Tween-20 (Antibody Dilution Buffer). All other wells are replaced with 90 μL/well of rabbit anti-phospho-c-jun-Ser63 (Cell Signaling, 9261) diluted 1:250 in Antibody Dilution Buffer. After a further one hour, rabbit anti-phospho-c-jun-Ser63 is added directly to the solution in the Blank wells resulting in 1:250 dilution of this antibody. Plates were then placed on a slowly rotating platform at 4 degrees C. overnight. Wells were then washed thrice with 200 μL/well PBS/0.1% Tween-20. After addition of the third wash, the plates were placed on a slowly rotating platform for 15 minutes at room temperature. […]

JNK1 = JNK1 (Homo sapiens, UniProt P45983); assay: In vitro JNK1 Assay (TR-FRET, phosphorylation of GST-c-Jun); format: biochemical; conditions: 0.2 nM JNK1, 26.7 nM GST-c-Jun, 2 μM ATP
Experimental: Phosphorylation of GST-c-Jun protein (amino acid residues 1-79) was measured as JNK1 activity. […] The reaction buffer contained 50 mM HEPES, pH 7.0, 10 mM MgCl2, 1 mM DTT, 0.1 mM Na3 VO4 and 0.2 mg/mL BSA. After 30 min. incubation at room temperature, the reaction was terminated by adding buffer containing 8 mM EDTA and a polyclonal anti-phospho-c-Jun antibody (Cell Signaling #9261L), followed by an additional incubation of 30 min. at room temperature. […] Time-resolved Fluorescence Resonance Energy Transfer (TR-FRET) signals were measured 1 hr. later on the EnVision reader (Perkin Elmer). Compound potency was assessed at 10 serially diluted concentrations. Percentage of inhibition at each concentration was determined to generate an IC50 value for each compound.

phospho-(Ser63)-c-jun [2] = assay: Mouse In Vivo TNFα-Induced Kidney and Liver Phospho-c-Jun Assay; parameters: species or system C57/BL6 mice; conditions: Example B, procedures identical to Example A
Experimental: Male C57/BL6 mice were obtained from Jackson Labs and acclimatized for at least one week prior to use at age 10-12 weeks. Mice (n=8 per group) were administered Compound I-1 (Group 3; 50 mg/kg from a 12.5 mg/mL preparation in 20% (v/v)DMSO/80% (v/v) PEG400) or vehicle alone (Groups 1 and 2) via oral gavage. One hour later, mice received an intravenous challenge of 5 μg/kg recombinant mouse TNFα (Sigma) in saline (Groups 2 and 3) or saline alone (Group 1). After a further 1 h, the animals were killed by carbon dioxide inhalation. Kidneys and livers were removed, rapidly frozen in liquid nitrogen and stored at −80 degrees until analysis.
For analysis of livers, portions of frozen tissue (100-200 mg) were homogenized in lysis buffer (Cell Signaling Technology) supplemented with 1% (v/v) of each of Phosphatase Inhibitor Cocktail-1 (Sigma), Phosphatase Inhibitor Cocktail-2 (Sigma), Protease Inhibitor Cocktail (Sigma) and 1 mM AEBSF (Sigma). The phospho-(Ser63)-c-jun content was quantified using an ELISA kit (Cell Signaling Technology).
Experimental procedures were identical to Example A, but using 7-chloro-3-(4-methanesulfonyl-benzyl)-4-oxo-1-phenyl-1,4-dihydro-quinoline-2-carboxylic acid methyl ester.

phospho-(Ser63)-c-jun [3] = assay: Rat In Vivo TNFα-Induced Kidney Phospho-c-Jun Assay; parameters: species or system Sprague-Dawley rats; conditions: Example D, 2 doses of 75 mg/kg oral (0 and 12 h), TNFα 2.5 ug/kg i.v. at 23 h, killed 1 h later, normalized to Group 2 as 100%, mean (standard deviation)
Experimental: Male Sprague-Dawley rats were obtained from Charles River and acclimatized for at least one week prior to use at age 6-8 weeks. Rats (n=8 per group) were administered Compound I-1 (Group 3; 75 mg/kg from a Microprecipitated Bulk Powder formulation resuspended in Klucel vehicle at 18.75 mg/mL) or vehicle alone (Groups 1 and 2) via oral gavage. Seven hours later, rats received an intravenous challenge of 2.5 μg/kg recombinant rat TNFα (Sigma) in saline (Groups 2 and 3) or saline alone (Group 1). After a further 1 h, the animals were killed by carbon dioxide inhalation. Kidneys were removed, rapidly frozen in liquid nitrogen and stored at −80 degrees until analysis.
Sample analysis was performed as described for mouse kidneys in Example a.
Male Sprague-Dawley rats were obtained from Charles River and acclimatized for at least one week prior to use at age 6-8 weeks. Rats (n=8 per group) were administered Compound I-1 (Groups 3 and 4; 75 mg/kg from a Microprecipitated Bulk Powder formulation resuspended in Klucel vehicle at 18.75 mg/mL) or vehicle alone (Groups 1 and 2) via oral gavage. Group 3 received an additional identical dose 12 hours later. Group 4 received an additional identical dose at 8 and 16 hours after the first dose. […]

JNK1, sequence (P45983 whole entry, species assumed, the tested form may be a part): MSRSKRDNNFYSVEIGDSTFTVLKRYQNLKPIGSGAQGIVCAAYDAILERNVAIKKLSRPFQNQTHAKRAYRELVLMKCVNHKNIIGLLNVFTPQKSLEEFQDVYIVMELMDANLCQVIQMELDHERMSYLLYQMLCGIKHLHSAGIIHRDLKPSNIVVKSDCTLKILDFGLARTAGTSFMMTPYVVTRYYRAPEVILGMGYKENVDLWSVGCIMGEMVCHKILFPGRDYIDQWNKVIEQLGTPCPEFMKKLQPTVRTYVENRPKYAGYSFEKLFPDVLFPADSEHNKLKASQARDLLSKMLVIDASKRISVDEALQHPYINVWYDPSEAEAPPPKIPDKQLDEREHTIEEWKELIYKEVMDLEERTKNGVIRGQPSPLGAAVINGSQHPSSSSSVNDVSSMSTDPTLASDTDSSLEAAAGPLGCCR

| SMILES | pEC50 [1] | pIC50 (JNK1) | effect on the levels of phospho-(Ser63)-c-jun in the kidneys (phospho-(Ser63)-c-jun [2]) | effect on the levels of phospho-(Ser63)-c-jun in the livers (phospho-(Ser63)-c-jun [2]) | Kidney phospho-c-jun (phospho-(Ser63)-c-jun [3]) |
| --- | --- | --- | --- | --- | --- |
| COC(=O)c1c(Cc2ccc(S(C)(=O)=O)cc2)c(=O)c2ccc(Cl)cc2n1-c1ccccc1 [7-chloro-3-(4-methanesulfonyl-benzyl)-4-oxo-1-phenyl-1,4-dihydro-quinoline-2-carboxylic acid methyl ester, reference compound] | 4.82 | 7.49 | No significant effect | No significant effect |  |
| COC(=O)c1c(Cn2ccc(C(=O)N[C@@H]3[C@@H]4C[C@@H]5C[C@H]3C[C@@](O)(C5)C4)cc2=O)c(=O)c2ccc(Cl)cc2n1-c1ccccc1 [Compound I-26, rel-7-Chloro-3-[4-((1S,2S,3R,5S,7S)-5-hydroxy-adamantan-2-ylcarbamoyl)-2-oxo-2H-pyridin-1-ylmethyl]-4-oxo-1-phenyl-1,4-dihydro-quinoline-2-carboxylic acid methyl ester] | 5.41 | 7.40 |  |  |  |

Further lines, with some results ahead:

| pEC50 [1] | pIC50 (JNK1) | SMILES | effect on the levels of phospho-(Ser63)-c-jun in the kidneys (phospho-(Ser63)-c-jun [2]) | effect on the levels of phospho-(Ser63)-c-jun in the livers (phospho-(Ser63)-c-jun [2]) | Kidney phospho-c-jun (phospho-(Ser63)-c-jun [3]) |
| --- | --- | --- | --- | --- | --- |
| 5.39 | 7.92 | COC(=O)c1c(Cc2ccc(C(=O)N[C@@H]3[C@@H]4C[C@@H]5C[C@H]3C[C@@](O)(C5)C4)cc2)c(=O)c2cccnc2n1-c1ccccc1 [Compound I-1, rel-3-[4-((1S,2S,3R,5S,7S)-5-Hydroxy-adamantan-2-ylcarbamoyl)-benzyl]-4-oxo-1-phenyl-1,4-dihydro-[1,8]naphthyridine-2-carboxylic acid methyl ester] |  |  | 59.6 (30.0) % |
| 5.44 | 7.11 | COC(=O)c1c(Cc2ccc(C(=O)N[C@@H]3[C@@H]4C[C@@H]5C[C@H]3C[C@@](O)(C5)C4)cc2)c(=O)c2ccc(C(F)(F)F)nc2n1-c1ccccc1 [Compound I-25, rel-3-[4-((1S,2S,3R,5S,7S)-5-Hydroxy-adamantan-2-ylcarbamoyl)-benzyl]-4-oxo-1-phenyl-7-trifluoromethyl-1,4-dihydro-[1,8]naphthyridine-2-carboxylic acid methyl ester] |  |  |  |
| 5.07 | 7.57 | O=C(N[C@@H]1[C@@H]2C[C@@H]3C[C@H]1C[C@@](O)(C3)C2)c1ccc(Cc2c(-c3ncco3)n(-c3ccccc3)c3cc(Cl)ccc3c2=O)cc1 [Compound I-27, Rel-4-(7-Chloro-2-oxazol-2-yl-4-oxo-1-phenyl-1,4-dihydro-quinolin-3-ylmethyl)-N-((1S,2S,3R,5S,7S)-5-hydroxy-adamantan-2-yl)-benzamide] |  |  |  |
